From patent US20200392150A1, “Diaryl-B-Lactam Compound and Preparation Method and Pharmaceutical Use Thereof” (Fudan University, priority 2016, published 2020) come the findings set out here.

“Also recorded” adds a separate entry of the source. Like-named read-outs stand apart in the source and are kept apart here.

Test [1] deals with human umbilical veinendothelial cells (HUVECs). Nature of the test: Capillary-like tube formation assay. The format is cell-based. To be noted: HUVECs on matrigel, 12 h. The method, then: […] matrigel (Corning) per well was added to 96-well plate and pre-incubated at 37° C. for 1 h for gelation. 3*10^4 human umbilical veinendothelial cells (HUVECs) in […] medium per well containing indicated concentrations of 69, 70 and 97, CA-4 as positive control, or diluent (0.2% DMSO) as negative control, respectively, were seeded to 96-well plates on the matrigel layer, followed by continual incubation at 37° C. for 12 h to allow capillary-like tube formation. Images were captured with a CCD Sensicam camera mounted on an Olympus inverted microscope. Representative data from three independent experiments were shown.

Another test concerns tubulin in SKOV-3 cells. Nature of the test: Immunofluorescent analysis of tubulin morphology. It is filed as cell-based, human. To be noted: 24 h. On the procedure:
After treatment with diluent (0.2% DMSO) or tested compounds at indicated concentrations for 24 h, SKOV-3 cells were fixed with methanol, permeabilized with 0.1% Triton X-100 in PBS and blocked by goat serum. Then the cells were incubated with a-tubulin antibody at 4° C. overnight, followed by incubation with Alexa 488 labeled secondary antibody (Jackson ImmunoResearch) at RT for 1 h. After being stained with DAPI, cells were examined and photographed with a Leica SP5 co-focal fluorescence microscope.

For another test, the system named is Hela cells. Nature of the test: Cell cycle analysis. The format is cell-based, human. To be noted: 24 h. The method, then:
2*10^5 Hela cells per well were seeded into six-well plate and allowed to adhere overnight at 37° C. After treatment with indicated concentrations of 69, 70 and 97, CA-4 as positive control or diluent (0.2% DMSO) as negative control for 24 h, cells were harvested, washed twice with PBS and fixed with 75% ethanol at −20° C. overnight. Then cells were stained with propidium iodide dye (BD Biosciences) for 15 min in dark conditions at room temperature, followed by subjected to flow cytometry (Cytomics FC 500MPL, Beckman Coulter) detection. The results were analyzed by Multicycle AV (for Windows, version 320) software and indicated as mean values from three independent determinations.

In test [2] the test system is Bax, p53 and cleaved-PARP in HeLa cells. Nature of the test: Expression level of apoptosis associated proteins. It is filed as cell-based, human. To be noted: western blotting and qPCR. The method, then:
A. Western blotting: After being treated with candidate compound, cells were harvested and lysed. Then, the lysate was isolated by ultracentrifuge and quantified by BCA assay according to the protocol. After being denatured, equivalent protein of each sample was separated by SDSPAGE gel and wet-transferred onto 0.22 μm nitrocellulose membrane. After being blocked by PBS containing 5% skim milk, the membrane was incubated with primary antibody at 4° C. overnight and secondary antibody at room temperature for 2 h and then visualized by enhanced chemiluminescence kit (Thermo Fisher, USA), sequentially.
(§1) B. Quantitative PCR assay: HeLa cells were treated with 69, 70 or 97. The expression level of mRNA of target proteins was tested with qPCR kit (Takara).

Test [3] deals with VEGF induced angiogenesis. Nature of the test: Matrigel plug assay. It is filed as in vivo, Balb/C nude mice. To be noted: nude mice, s.c. matrigel with 100 ng/mL VEGF-A165, 2 weeks. The method, then:
6 weeks old female Balb/C nude mice were purchased from Shanghai Slac Laboratory Animal Co. Ltd. (Shanghai, China). Matrigel containing 100 ng/mL human recombinant VEGF-A165 (Peprotech, Rocky Hill, N.J.) were mixed with indicated concentrations of 69, 70 and 97, or diluent (0.2% DMSO) as negative control at 4° C. Then, 0.5 mL of the matrigel mixture per mouse was injected subcutaneously into nude mice (n=4) in the dorsal region to generate matrigel plugs. 2 weeks later, the mice were sacrificed and matrigel plugs were recovered. Representative data from three independent experiments were shown.

Another test deals with MDA-MB-231 cells. Put plainly: Colony formation assay. It is filed as cell-based, human. Particulars: 48 h treatment, 7-10 days growth. The method, then:
1000 MDA-MB-231 cells per well were seeded into 6-well plate at a single cell density and were cultured at 37° C. for 48 h. After being treated with indicated concentrations of 69, 70 and 97, CA-4 as positive control, or diluent (0.2% DMSO) as negative control for 48 h, the agents containing medium was replaced by fresh medium to allow cell growth for additional 7-10 days. Then the cells were fixed with methanol and stained with gentian violet for 30 min.
The number of colonies which consisted of more than 50 cells were counted. The results were indicated as mean values from three independent determinations.

Test [4] concerns p-histone H3, cyclin B1 and BuBR1 in HeLa cells. Put plainly: Cell cycle associated proteins assay. The format is cell-based, human. Particulars: 24 h, western blot and qPCR. The method, then:
A. HeLa cells were treated with 69, 70, 97 or DMSO for 24 h. After being harvested, the cells were lysed, and the concentrations of total protein were determined by BCA protein assay kit (Beyotime, China). […] The membrane was blocked with 5% BSA in TBST for 1.5 h, then incubated overnight with specific primary antibodies (Proteintech) at 4° C. After being washed three times by TBST, the membrane was incubated with specific secondary antibodies (Abnova, Taipei, China) at room temperature for 2 h. Finally, chemiluminescent reagents (Millipore) were employed to detect the protein bands.
as §1

The target of the next test is T1, Pig brain tubulin (Sus scrofa, UniProt P02550+P02554).
T1 construct: purchased; host or cells: pig brain
T1 sequence (P02554 whole entry): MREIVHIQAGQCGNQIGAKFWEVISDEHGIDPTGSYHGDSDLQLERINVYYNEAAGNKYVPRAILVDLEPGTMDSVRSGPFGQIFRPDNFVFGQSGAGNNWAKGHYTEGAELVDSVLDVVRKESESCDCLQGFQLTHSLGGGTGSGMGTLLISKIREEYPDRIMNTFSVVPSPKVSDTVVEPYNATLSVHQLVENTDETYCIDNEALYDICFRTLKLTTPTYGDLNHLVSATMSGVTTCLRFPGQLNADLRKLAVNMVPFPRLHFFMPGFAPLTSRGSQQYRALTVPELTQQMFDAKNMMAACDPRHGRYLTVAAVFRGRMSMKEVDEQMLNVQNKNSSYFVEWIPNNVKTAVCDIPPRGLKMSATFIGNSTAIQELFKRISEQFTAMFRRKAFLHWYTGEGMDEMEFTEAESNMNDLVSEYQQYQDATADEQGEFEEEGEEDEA
T1 sequence (P02550 whole entry): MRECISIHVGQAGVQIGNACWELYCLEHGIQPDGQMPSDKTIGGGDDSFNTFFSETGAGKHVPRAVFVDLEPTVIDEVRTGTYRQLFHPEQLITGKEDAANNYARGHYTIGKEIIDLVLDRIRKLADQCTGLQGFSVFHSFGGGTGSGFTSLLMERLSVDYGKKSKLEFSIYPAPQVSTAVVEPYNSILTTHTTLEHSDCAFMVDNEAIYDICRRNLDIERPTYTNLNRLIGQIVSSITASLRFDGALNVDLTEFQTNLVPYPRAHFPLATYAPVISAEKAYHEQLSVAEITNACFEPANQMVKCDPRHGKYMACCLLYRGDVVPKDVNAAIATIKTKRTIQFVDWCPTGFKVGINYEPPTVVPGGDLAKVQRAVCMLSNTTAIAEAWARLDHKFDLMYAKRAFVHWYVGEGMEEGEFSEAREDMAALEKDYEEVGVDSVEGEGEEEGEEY
Nature of the test: In vitro tubulin polymerization assay. The format is biochemical. The method, then: In vitro tubulin polymerization assay Pig brain tubulin was obtained commercially and stored in aliquots at −70° C. […] The absorbance of wavelength at 340 nm was detected every 1 min for 20 min by Spectra Max 190 spectrophotometer (Molecular Device) at 37° C. The results were indicated as mean values from three independent determinations.

Another test deals with cells. Put plainly: Cell apoptosis analysis (Annexin V/PI flow cytometry). It is filed as cell-based. Particulars: 48 h. The method, then: Cell apoptosis was detected using FITC Annexin V Apoptosis Detection Kit (BD Biosciences) according to manufacturer's instructions. Briefly, cells were incubated with indicated concentrations of 69, 70 and 97, CA-4 as positive control or diluent (0.2% DMSO) as negative control for 48 h. Then the cells were harvested, washed twice with PBS, and re-suspended in binding buffer. After being stained with Annexin-V and PI for 15 min in the dark place, cells were subjected to flow cytometry (Cytomics FC 500 MPL, Beckman Coulter) analysis. The results were indicated as mean values from three independent determinations.

Consider `COc1ccc([C@H]2[C@H](CO)C(=O)N2c2cc(OC)c(OC)c(OC)c2)cc1O` [Compound 69, (3R,4R)-4-(3-hydroxy-4-methoxyphenyl)-3-(hydroxymethyl)-1-(3,4,5-trimethoxyphenyl)azetidin-2-one], for which the capillary-like tube formation result in [1] is on record as “significantly inhibit the formation of capillary-like structures; also recorded: almost completely disrupted the capillary-like tube formation”. For the same molecule, the “tubulin assembly (immunofluorescence)” value in the test on tubulin in SKOV-3 cells was “significantly inhibit tubulin aggregation; also recorded: strongly inhibit tubulin assembly”. Moreover, in the test with Hela cells, the “cell cycle arrest (G2/M, mitotic arrest)” value is “significantly arrest cells in the G2/M phase; also recorded: significantly induce cellular mitotic arrest”. Further, the “expression of Bax, p53 and cleaved-PARP” value in test [2] is “significantly promote the expression of the proapoptotic protein Bax, the tumor suppressor gene p53, and the cleaved DNA repair enzyme; also recorded: significantly induce the expression of Bax, p53 and cleaved-PARP”. In addition, in [3], the “VEGF induced angiogenesis in matrigel plugs” value (shortened to “VEGF induced angiogenesis”) was “significantly inhibit VEGF-mediated neovascularization; also recorded: suppressed VEGF induced angiogenesis”. Moreover, the colony formation result with MDA-MB-231 cells is given as “significantly inhibit the formation of colonies; also recorded: dose-dependently reduced”. Moreover, in [4], the “expression of p-histone H3, cyclin B1 and BuBR1” value (shortened to “expression of p-histone H3”) is “significantly promote the expression of phosphorylated histone H3, cyclinB1, and mitotic checkpoint protein BuBR1; also recorded: significantly induce the expression of p-histone H3, cyclin B1 and BuBR1”. On Pig brain tubulin, this molecule showed an IC50 of 3500 nM. Moreover, the cellular apoptosis result in the test with cells is reported as “significantly promote apoptosis; also recorded: significantly induce cellular apoptosis”.
Take `COc1ccc([C@H]2[C@@H](C)C(=O)N2c2cc(OC)c(OC)c(OC)c2)cc1O` [Compound 70, (3R,4R)-4-(3-hydroxy-4-methoxyphenyl)-3-methyl-1-(3,4,5-trimethoxyphenyl)azetidin-2-one]: the capillary-like tube formation entry in test [1] is reported as “significantly inhibit the formation of capillary-like structures; also recorded: almost completely disrupted the capillary-like tube formation”. Besides, in the test with tubulin in SKOV-3 cells, the “tubulin assembly (immunofluorescence)” value was “significantly inhibit tubulin aggregation; also recorded: strongly inhibit tubulin assembly”. Also, the “cell cycle arrest (G2/M, mitotic arrest)” value in the test on Hela cells is “significantly arrest cells in the G2/M phase; also recorded: significantly induce cellular mitotic arrest”. In addition, the “expression of Bax, p53 and cleaved-PARP” value in [2] was “significantly promote the expression of the proapoptotic protein Bax, the tumor suppressor gene p53, and the cleaved DNA repair enzyme; also recorded: significantly induce the expression of Bax, p53 and cleaved-PARP”. In addition, in [3], the “VEGF induced angiogenesis” value was “significantly inhibit VEGF-mediated neovascularization; also recorded: suppressed VEGF induced angiogenesis”. Besides, the colony formation result in the test on MDA-MB-231 cells was “significantly inhibit the formation of colonies; also recorded: dose-dependently reduced”. Moreover, the “expression of p-histone H3” value in test [4] is “significantly promote the expression of phosphorylated histone H3, cyclinB1, and mitotic checkpoint protein BuBR1; also recorded: significantly induce the expression of p-histone H3, cyclin B1 and BuBR1”. Further, the 50% inhibitory concentration (IC50) against Pig brain tubulin stood at 1700 nM. Further, the cellular apoptosis entry with cells is on record as “significantly promote apoptosis; also recorded: significantly induce cellular apoptosis”.
As to `COc1ccc([C@H]2[C@H](C)C(=O)N2c2cc(OC)c(OC)c(OC)c2)cc1O` [Compound 97, (3S,4R)-4-(3-hydroxy-4-methoxyphenyl)-3-methyl-1-(3,4,5-trimethoxyphenyl)azetidin-2-one], the capillary-like tube formation entry in [1] is reported as “significantly inhibit the formation of capillary-like structures; also recorded: almost completely disrupted the capillary-like tube formation”. Moreover, the “tubulin assembly (immunofluorescence)” value in the test with tubulin in SKOV-3 cells is on record as “significantly inhibit tubulin aggregation; also recorded: strongly inhibit tubulin assembly”. Besides, in the test with Hela cells, the “cell cycle arrest (G2/M, mitotic arrest)” value is reported as “significantly arrest cells in the G2/M phase; also recorded: significantly induce cellular mitotic arrest”. Also, the “expression of Bax, p53 and cleaved-PARP” value in [2] was “significantly promote the expression of the proapoptotic protein Bax, the tumor suppressor gene p53, and the cleaved DNA repair enzyme; also recorded: significantly induce the expression of Bax, p53 and cleaved-PARP”. The “VEGF induced angiogenesis” value in test [3] is given as “significantly inhibit VEGF-mediated neovascularization; also recorded: suppressed VEGF induced angiogenesis”. Further, the colony formation result in the test with MDA-MB-231 cells was “significantly inhibit the formation of colonies; also recorded: dose-dependently reduced”. Besides, in test [4], the “expression of p-histone H3” value is “significantly promote the expression of phosphorylated histone H3, cyclinB1, and mitotic checkpoint protein BuBR1; also recorded: significantly induce the expression of p-histone H3, cyclin B1 and BuBR1”. For the same molecule, on Pig brain tubulin (pig brain tubulin, absorbance 340 nm, 20 min, 37° C., read-out: IC50 disruption of tubulin assembly), the IC50 came to 1600 nM. Moreover, the cellular apoptosis entry in the test with cells was “significantly promote apoptosis; also recorded: significantly induce cellular apoptosis”.
